Among the data in patent publication US11566030B2, “Substituted 2,6-dihydropyrrolo[3,4-c]pyrazoles as pyruvate kinase activators” (priority 2021, dated 2023) are AC50 and Emax values, retold here.

The test deals with T1, Human pyruvate kinase R (PKR) (Homo sapiens, UniProt P30613).
T1 construct: Human pyruvate kinase R (PKR), residues 14-574; 6xHis-8xArg-SUMO (N, cleaved yes); host or cells: E. coli
As to the kind of experiment: Biochemical assay for activation of pyruvate kinase R (Kinase-Glo luminescence, ATP generation). As to conditions: for Emax: read-out: PKR % activation, maximal activation level achieved with each compound relative to the activation level achieved by AG-348 @ 10 μM. An outline of the steps:
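Recombinant human PKR (residues 14-574) expressed in E. coli with His-Arg-SUMO tag, tag cleaved, purified by Ni-NTA, anion exchange and size exclusion. Activation read as ATP generation by Kinase-Glo luminescence.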
(In general: In Kinase-Glo more light means more ATP remaining.)

Where [1] appears, read: PKR AC50 (nM), 0.1 nM PKR, 0.3 mM ADP, 0.1 mM PEP, 1% DMSO.

Read-outs that look alike come from different tables or passages of the source.

T1 sequence (P30613 14-574): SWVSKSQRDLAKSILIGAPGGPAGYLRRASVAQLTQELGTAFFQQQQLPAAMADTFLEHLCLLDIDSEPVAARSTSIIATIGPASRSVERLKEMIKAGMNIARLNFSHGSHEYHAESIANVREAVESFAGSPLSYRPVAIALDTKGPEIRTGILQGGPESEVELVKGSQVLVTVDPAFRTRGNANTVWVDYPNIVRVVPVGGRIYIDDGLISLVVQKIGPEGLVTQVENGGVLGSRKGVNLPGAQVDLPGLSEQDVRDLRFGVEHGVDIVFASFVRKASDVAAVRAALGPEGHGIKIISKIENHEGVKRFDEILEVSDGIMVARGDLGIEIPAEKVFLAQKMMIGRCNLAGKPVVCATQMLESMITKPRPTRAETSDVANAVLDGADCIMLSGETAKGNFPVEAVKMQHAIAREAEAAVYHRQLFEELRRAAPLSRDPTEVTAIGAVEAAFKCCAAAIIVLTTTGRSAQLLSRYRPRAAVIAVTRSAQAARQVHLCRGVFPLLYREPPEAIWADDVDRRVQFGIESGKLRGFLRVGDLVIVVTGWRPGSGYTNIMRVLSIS

As for `Cc1cn(CC(F)(F)F)nc1S(=O)(=O)n1cc2c(n1)CN(C(=O)[C@H](CO)c1ccccc1)C2` [Compound 66, (2S)-3-hydroxy-1-{2-[4-methyl-1-(2,2,2-trifluoroethyl)pyrazol-3-ylsulfonyl]-4H,6H-pyrrolo[3,4-c]pyrazol-5-yl}-2-phenylpropan-1-one], the Emax was 0%. The compound also had an AC50 under setting [1] of 120 nM.

In the case of `Cc1cn(CC(F)(F)F)nc1S(=O)(=O)n1cc2c(n1)CN(C(=O)[C@@H](CO)c1ccccc1)C2` [Compound 67, (2R)-3-hydroxy-1-{2-[4-methyl-1-(2,2,2-trifluoroethyl)pyrazol-3-ylsulfonyl]-4H,6H-pyrrolo[3,4-c]pyrazol-5-yl}-2-phenylpropan-1-one], the Emax was 0%. On to `Cc1cn(CC(F)(F)F)nc1S(=O)(=O)n1cc2c(n1)CN(C(=O)[C@H](CO)c1ccccc1F)C2` [Compound 68, (2S)-2-(2-fluorophenyl)-3-hydroxy-1-{2-[4-methyl-1-(2,2,2-trifluoroethyl)pyrazol-3-ylsulfonyl]-4H,6H-pyrrolo[3,4-c]pyrazol-5-yl}propan-1-one], for which the Emax was found to be 9%. The compound further gave an AC50 under setting [1] of 2100 nM. The like results for `Cc1cn(CC(F)(F)F)nc1S(=O)(=O)n1cc2c(n1)CN(C(=O)[C@@H](CO)c1ccccc1F)C2` [Compound 69, (2R)-2-(2-fluorophenyl)-3-hydroxy-1-{2-[4-methyl-1-(2,2,2-trifluoroethyl)pyrazol-3-ylsulfonyl]-4H,6H-pyrrolo[3,4-c]pyrazol-5-yl}propan-1-one] were, in that order, 4% and 15 nM.

Consider `Cc1cn(CC(F)(F)F)nc1S(=O)(=O)n1cc2c(n1)CN(C(=O)[C@H](CO)c1ccccc1Cl)C2` [Compound 70, (2S)-2-(2-chlorophenyl)-3-hydroxy-1-{2-[4-methyl-1-(2,2,2-trifluoroethyl)pyrazol-3-ylsulfonyl]-4H,6H-pyrrolo[3,4-c]pyrazol-5-yl}propan-1-one], for which the Emax is 36%. In addition, the concentration at half-maximal activity (AC50) under setting [1] came to 82 nM. The like results for `Cc1cn(CC(F)(F)F)nc1S(=O)(=O)n1cc2c(n1)CN(C(=O)[C@@H](CO)c1ccccc1Cl)C2` [Compound 71, (2R)-2-(2-chlorophenyl)-3-hydroxy-1-{2-[4-methyl-1-(2,2,2-trifluoroethyl)pyrazol-3-ylsulfonyl]-4H,6H-pyrrolo[3,4-c]pyrazol-5-yl}propan-1-one] were, in that order, 30% and 3900 nM. Turning to `O=C([C@H](CO)c1ccccc1)N1Cc2cn(S(=O)(=O)c3ccn(CC(F)F)n3)nc2C1` [Compound 72, (2S)-1-{2-[1-(2,2-difluoroethyl)pyrazol-3-ylsulfonyl]-4H,6H-pyrrolo[3,4-c]pyrazol-5-yl}-3-hydroxy-2-phenylpropan-1-one], the AC50 worked out at 9.6 nM and the Emax turned out to be 98%. Regarding `O=C([C@H](CO)c1cccc(F)c1F)N1Cc2cn(S(=O)(=O)c3cnn(CC(F)(F)F)c3)nc2C1` [Compound 73, (2S)-2-(2,3-difluorophenyl)-3-hydroxy-1-{2-[1-(2,2,2-trifluoroethyl)pyrazol-4-ylsulfonyl]-4H,6H-pyrrolo[3,4-c]pyrazol-5-yl}propan-1-one], the Emax stood at 66%. Besides, the AC50 under setting [1] was 17 nM. Take `O=C([C@@H](CO)c1cccc(F)c1F)N1Cc2cn(S(=O)(=O)c3cnn(CC(F)(F)F)c3)nc2C1` [Compound 74, (2R)-2-(2,3-difluorophenyl)-3-hydroxy-1-{2-[1-(2,2,2-trifluoroethyl)pyrazol-4-ylsulfonyl]-4H,6H-pyrrolo[3,4-c]pyrazol-5-yl}propan-1-one]: the Emax turned out to be 72%. In addition, the concentration at half-maximal activity (AC50) under setting [1] is 440 nM.

In the case of `Cc1cn(CC(F)(F)F)nc1S(=O)(=O)n1cc2c(n1)CN(C(=O)C1(c3ncccc3Cl)COC1)C2` [Compound 75, (3-(3-chloropyridin-2-yl)oxetan-3-yl)(2-((4-methyl-1-(2,2,2-trifluoroethyl)-1H-pyrazol-3-yl)sulfonyl)-2,6-dihydropyrrolo[3,4-c]pyrazol-5(4H)-yl)methanone], the Emax was found to be 3%. Under setting [1], this compound gave a half-maximal activity concentration (AC50) of 0.51 nM. The like results for `Cc1cn(CC(F)F)nc1S(=O)(=O)n1cc2c(n1)CN(C(=O)[C@H](CO)c1ccccc1)C2` [Compound 76, (2S)-1-{2-[1-(2,2-difluoroethyl)-4-methylpyrazol-3-ylsulfonyl]-4H,6H-pyrrolo[3,4-c]pyrazol-5-yl}-3-hydroxy-2-phenylpropan-1-one] were, in that order, 3% and 3800 nM.

As to `Cc1cn(CC(F)F)nc1S(=O)(=O)n1cc2c(n1)CN(C(=O)[C@@H](CO)c1ccccc1)C2` [Compound 77, (2R)-1-{2-[1-(2,2-difluoroethyl)-4-methylpyrazol-3-ylsulfonyl]-4H,6H-pyrrolo[3,4-c]pyrazol-5-yl}-3-hydroxy-2-phenylpropan-1-one], the Emax came to 16%. Besides, under setting [1], the AC50 was determined as 0.51 nM. Turning to `Cc1cn(CC(F)F)nc1S(=O)(=O)n1cc2c(n1)CN(C(=O)[C@H](CO)c1ccccc1F)C2` [Compound 78, (2S)-1-{2-[1-(2,2-difluoroethyl)-4-methylpyrazol-3-ylsulfonyl]-4H,6H-pyrrolo[3,4-c]pyrazol-5-yl}-2-(2-fluorophenyl)-3-hydroxypropan-1-one], the concentration at half-maximal activity (AC50) was 7.1 nM and the Emax was found to be 32%. For `Cc1cn(CC(F)F)nc1S(=O)(=O)n1cc2c(n1)CN(C(=O)[C@@H](CO)c1ccccc1F)C2` [Compound 79, (2R)-1-{2-[1-(2,2-difluoroethyl)-4-methylpyrazol-3-ylsulfonyl]-4H,6H-pyrrolo[3,4-c]pyrazol-5-yl}-2-(2-fluorophenyl)-3-hydroxypropan-1-one], in that order: 550 nM and 33%. For `Cc1cn(CC(F)F)nc1S(=O)(=O)n1cc2c(n1)CN(C(=O)[C@H](CO)c1ccccc1Cl)C2` [Compound 80, (2S)-2-(2-chlorophenyl)-1-(2-{[1-(2,2-difluoroethyl)-4-methyl-1H-pyrazol-3-yl]sulfonyl}-2H,4H,5H,6H-pyrrolo[3,4-c]pyrazol-5-yl)-3-hydroxypropan-1-one], in that order: 8.9 nM and 73%. In the case of `Cc1cn(CC(F)F)nc1S(=O)(=O)n1cc2c(n1)CN(C(=O)[C@@H](CO)c1ccccc1Cl)C2` [Compound 81, (2R)-2-(2-chlorophenyl)-1-{2-[1-(2,2-difluoroethyl)-4-methylpyrazol-3-ylsulfonyl]-4H,6H-pyrrolo[3,4-c]pyrazol-5-yl}-3-hydroxypropan-1-one], the AC50 worked out at 500 nM and the Emax is 62%. Take `Cc1cn(CC(F)F)nc1S(=O)(=O)n1cc2c(n1)CN(C(=O)C1(c3ncccc3Cl)COC1)C2` [Compound 82, 3-chloro-2-(3-{2-[1-(2,2-difluoroethyl)-4-methylpyrazol-3-ylsulfonyl]-4H,6H-pyrrolo[3,4-c]pyrazole-5-carbonyl}oxetan-3-yl)pyridine]: the Emax worked out at 19%. Further, the concentration at half-maximal activity (AC50) under setting [1] stood at 8.3 nM. Turning to `O=C([C@H](CO)c1ccccc1)N1Cc2cn(S(=O)(=O)c3cnn(CC(F)(F)F)c3)nc2C1` [Compound 83, (2S)-3-hydroxy-2-phenyl-1-{2-[1-(2,2,2-trifluoroethyl)pyrazol-4-ylsulfonyl]-4H,6H-pyrrolo[3,4-c]pyrazol-5-yl}propan-1-one], the activity was half-maximal at 15 nM (AC50) and the Emax is 69%.

For the compound `O=C([C@@H](CO)c1ccccc1)N1Cc2cn(S(=O)(=O)c3cnn(CC(F)(F)F)c3)nc2C1` [Compound 84, (2R)-3-hydroxy-2-phenyl-1-{2-[1-(2,2,2-trifluoroethyl)pyrazol-4-ylsulfonyl]-4H,6H-pyrrolo[3,4-c]pyrazol-5-yl}propan-1-one], half-maximal activity (AC50) was put at 2500 nM and the Emax is 73%. On to `Cc1nn(CC(F)F)c(C)c1S(=O)(=O)n1cc2c(n1)CN(C(=O)[C@H](CO)c1ccccc1)C2` [Compound 87, (2S)-1-[2-[1-(2,2-difluoroethyl)-3,5-dimethylpyrazol-4-ylsulfonyl]-4H,6H-pyrrolo[3,4-c]pyrazol-5-yl]-3-hydroxy-2-phenylpropan-1-one], for which the Emax amounted to 59%.

`Cc1nn(CC(F)F)c(C)c1S(=O)(=O)n1cc2c(n1)CN(C(=O)[C@@H](CO)c1ccccc1)C2` [Compound 88, (2R)-1-[2-[1-(2,2-difluoroethyl)-3,5-dimethylpyrazol-4-ylsulfonyl]-4H,6H-pyrrolo[3,4-c]pyrazol-5-yl]-3-hydroxy-2-phenylpropan-1-one]: the Emax turned out to be 0%. Moreover, the concentration at half-maximal activity (AC50) under setting [1] was 680 nM. `Cc1c(S(=O)(=O)n2cc3c(n2)CN(C(=O)[C@@H](CO)c2ccccc2)C3)cnn1CC(F)F` [Compound 89, (R)-1-(2-((1-(2,2-difluoroethyl)-5-methyl-1H-pyrazol-4-yl)sulfonyl)-2,6-dihydropyrrolo[3,4-c]pyrazol-5(4H)-yl)-3-hydroxy-2-phenylpropan-1-one]: the activity was half-maximal at 1200 nM (AC50) and the Emax was found to be 105%. On to `O=C([C@H](CO)c1ccccc1Cl)N1Cc2cn(S(=O)(=O)c3cnn(CCF)c3)nc2C1` [Compound 90, (2S)-2-(2-chlorophenyl)-1-{2-[1-(2-fluoroethyl)pyrazol-4-ylsulfonyl]-4H,6H-pyrrolo[3,4-c]pyrazol-5-yl}-3-hydroxypropan-1-one], for which the Emax came out at 131%. Half-maximal activity under setting [1] (AC50) was put at 5.7 nM.

Regarding `O=C([C@@H](CO)c1ccccc1Cl)N1Cc2cn(S(=O)(=O)c3cnn(CCF)c3)nc2C1` [Compound 91, (2R)-2-(2-chlorophenyl)-1-{2-[1-(2-fluoroethyl)pyrazol-4-ylsulfonyl]-4H,6H-pyrrolo[3,4-c]pyrazol-5-yl}-3-hydroxypropan-1-one], the Emax turned out to be 164%. The half-maximal activity concentration (AC50) under setting [1] came to 91 nM. The like results for `CCn1cc(S(=O)(=O)n2cc3c(n2)CN(C(=O)[C@H](CO)c2ccccc2)C3)c(C(F)(F)F)n1` [Compound 94, (2S)-1-{2-[1-ethyl-3-(trifluoromethyl)pyrazol-4-ylsulfonyl]-4H,6H-pyrrolo[3,4-c]pyrazol-5-yl}-3-hydroxy-2-phenylpropan-1-one] were, in that order, 18% and 34 nM.

In general, AC50 refers to the concentration at which the activity in the assay is half-maximal. A higher AC50 goes with weaker potency.
